Data from the supplement of paper PMC8253809.

Columns and labels:
HGGX39 [1] = paediatric high-grade glioma line; assay: area under dose-response curve of % growth inhibition (log2 RLU vs DMSO / staurosporine), 1e-11 to 1e-4 M (% x log10 M); higher = more growth inhibition
Summary of the method: (§1)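 Area under the curve was derived with the trapezoid rule from a fitted log-logistic curve, switching to a smoothing spline if the sigmoid fit failed. It rested on per-plate % activity between solvent and positive controls, calculated from log2-transformed CellTiter-Glo luminescence after 7 days of exposure (3 days for iAstro) at 37 °C, 5% CO2. Patient-derived pHGG/DIPG lines and astrocytes on 1% Geltrex-coated 384-well plates received a 10-point threefold dilution series, mean top concentration 35 μM, in triplicate.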

HGGX6 [2] = H3.3 G34R paediatric high-grade glioma line; assay: as above
Summary of the method: as §1

DIPGX29 [3] = H3.3 K27M diffuse intrinsic pontine glioma line; assay: as above
Summary of the method: as §1

DIPGX37 [4] = H3.3 K27M diffuse intrinsic pontine glioma line; assay: as above
Summary of the method: as §1

HGGX39 [5] = assay: maximal growth inhibition (yFin) relative to DMSO / staurosporine; higher = more efficacious
Summary of the method: (§2)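 Compounds were delivered by pin tool as a 10-point threefold dilution series with a mean top concentration of 35 μM, in triplicate, to patient-derived pHGG/DIPG cell lines and astrocyte controls growing on 1% Geltrex-coated 384-well plates. Incubation lasted 7 days, or 3 days for iAstro, at 37 °C with 5% CO2. EC50 and maximal response (yFin) come from the three- or four-parameter log-logistic fit with the lowest AICc, applied to pooled, log2-transformed CellTiter-Glo luminescence normalised per plate to % activity between solvent (negative) and positive control wells.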

DIPGX29 [6] = assay: as above
Summary of the method: as §2

DIPGX37 [7] = assay: as above
Summary of the method: as §2

HGGX39 [8] = assay: EC50 (inflection of fitted growth-inhibition curve) (log10 M)
Summary of the method: as §2

DIPGX29 [9] = assay: as above
Summary of the method: as §2

DIPGX37 [10] = assay: as above
Summary of the method: as §2

HGGX6 [11] = assay: maximal growth inhibition (yFin) relative to DMSO / staurosporine; higher = more efficacious
Summary of the method: as §2

HGGX6 [12] = assay: EC50 (inflection of fitted growth-inhibition curve) (log10 M)
Summary of the method: as §2

Row | SMILES | area under dose-response curve (HGGX39 [1]) | area under dose-response curve (HGGX6 [2]) | area under dose-response curve (DIPGX29 [3]) | area under dose-response curve (DIPGX37 [4]) | maximal growth inhibition (HGGX39 [5]) | maximal growth inhibition (DIPGX29 [6]) | maximal growth inhibition (DIPGX37 [7]) | EC50 (log10 M) (HGGX39 [8]) | EC50 (log10 M) (DIPGX29 [9]) | EC50 (log10 M) (DIPGX37 [10]) | maximal growth inhibition (HGGX6 [11]) | EC50 (log10 M) (HGGX6 [12])
1 | CC(=O)N1c2ccc(-c3ccc(C(=O)O)cc3)cc2[C@H](Nc2ccc(Cl)cc2)C[C@@H]1C [I-BET726] | 55.9 | 44.5 | 43 | 79.4 | 37.7% | 30% | 37.1% | -5.73 | -5.48 | -6.37 | – | –
2 | CC(C)NC[C@@H](C(=O)N1CCN(c2ncnc3c2[C@H](C)C[C@H]3O)CC1)c1ccc(Cl)cc1 [IPATASERTIB] | 11.9 | 49 | 64.7 | 25.8 | – | 50.3% | 21.5% | – | -5.18 | -5.27 | 31.8% | -5.67
3 | Clc1ccc(NN=C(c2ccccc2)c2ccccn2)nc1 [JIB-04] | 34.4 | 61.4 | 63.6 | 25.7 | 34.3% | 47.2% | – | -5.02 | -5.13 | – | 50.7% | -5.07
4 | CC[C@H](C)C(=O)O[C@H]1C[C@@H](C)C=C2C=C[C@H](C)[C@H](CC[C@@H]3C[C@@H](O)CC(=O)O3)[C@H]21 [LOVASTATIN] | 94.8 | 29.1 | 29.8 | 36.7 | 68% | – | 23.7% | -5.37 | – | -5.76 | 21.5% | -5.49
5 | S=c1[nH]cnc2nc[nH]c12 [MERCAPTOPURINE] | 28 | 25.5 | 44.1 | 38 | – | 20.5% | – | – | -6.35 | – | 21.1% | -5.3
6 | CN(C)CCCNC(=O)c1ccc(-c2cc(O)c3ncccc3c2)cc1 [ML324] | 14.9 | 29.4 | 35.8 | 4.39 | – | 43.7% | – | – | -4.82 | – | 44.1% | -4.67
7 | CCC(CC)(NC(=O)C(C)C)C(=O)N[C@@H](CCCN=C(N)N)C(=O)NC1(C(=O)NC(c2ccc(F)cc2)c2ccc(F)cc2)CCCC1 [MM-102] | 12.2 | 65.5 | 39.7 | 6.41 | – | 33.9% | – | – | -5.17 | – | 63.5% | -5.03
8 | O=C(O)C[C@H](O)C[C@H](O)/C=C/c1c(C2CC2)nc2ccccc2c1-c1ccc(F)cc1 [PITAVASTATIN] | 215 | 95.1 | 75.6 | 121 | 92.9% | 49.2% | – | -6.26 | -5.04 | – | 66.4% | -5.36
9 | CCCCOc1ccc(OCCCN2CCOCC2)cc1 [PRAMOXINE] | 70.5 | 23.2 | 17.3 | 46.2 | 77% | – | 55.5% | -4.82 | – | -4.83 | 23.9% | -4.97
10 | CC(C)c1nc(N(C)S(C)(=O)=O)nc(-c2ccc(F)cc2)c1/C=C/[C@@H](O)C[C@@H](O)CC(=O)O [ROSUVASTATIN] | 83.4 | 30.4 | 25.2 | 37.5 | 61.4% | – | 22.7% | -5.45 | – | -5.85 | 21.2% | -5.54
11 | Cn1cnc2c(F)c(Nc3ccc(Br)cc3Cl)c(C(=O)NOCCO)cc21 [SELUMETINIB] | 14.2 | 26.8 | 52.5 | 96 | – | 34.5% | 83.2% | – | -4.87 | -4.93 | – | –
12 | Nc1ncnc2c1ncn2[C@@H]1O[C@H](C[C@@H](N)CC[C@H](N)C(=O)O)[C@@H](O)[C@H]1O [SINEFUNGIN] | 0 | 4.01 | 29 | 0 | – | 21.5% | – | – | -5.35 | – | – | –
13 | CCc1c2c(nc3ccc(O)cc13)-c1cc3c(c(=O)n1C2)COC(=O)[C@]3(O)CC [SN-38] | 167 | 65.4 | 68.7 | 125 | 46.5% | – | 49% | -6.74 | – | -6.02 | 23.2% | -6.77
14 | Nc1nc2[nH]cnc2c(=S)[nH]1 [THIOGUANINE] | 33.7 | 21.6 | 59.5 | 89.3 | 22.1% | 35.6% | 60.4% | -5.68 | -5.83 | -5.44 | – | –
15 | O=C(NCC1(c2nc(-c3ccccc3)cs2)CCOCC1)c1cccc(-c2noc(C(F)(F)F)n2)c1 [TMP269] | 22.7 | 27.4 | 28 | 53.7 | 25.1% | – | 44.2% | -4.9 | – | -4.89 | 21% | -4.93
16 | CCC(COC(=O)c1cc(OC)c(OC)c(OC)c1)(c1ccccc1)N(C)C (stereo unspecified) [TRIMEBUTINE] | 60.1 | 19.8 | 28.3 | 35.6 | 55.5% | – | 25.6% | -5.08 | – | -5.38 | 22.6% | -4.87
17 | C=C[C@]1(C)C[C@@H](OC(=O)CSC(C)(C)CNC(=O)[C@H](N)C(C)C)[C@]2(C)[C@H](C)CC[C@]3(CCC(=O)[C@H]32)[C@@H](C)[C@@H]1O [VALNEMULIN] | 42.1 | 12 | 59.9 | 24 | 30.5% | 55.5% | 30.2% | -5.56 | -4.85 | -4.79 | – | –
18 | CC[C@]1(O)C[C@@H]2CN(CCc3c([nH]c4ccccc34)[C@@](C(=O)OC)(c3cc4c(cc3OC)N(C)[C@H]3[C@@](O)(C(=O)OC)[C@H](OC(C)=O)[C@]5(CC)C=CCN6CC[C@]43[C@@H]65)C2)C1 [VINBLASTINE] | 53.5 | 58.8 | 88.8 | 58.2 | – | 50.4% | – | – | -5.63 | – | 23.5% | -5.46
